Test system: P493-6 (myc "on") cells
Test: Cell Proliferation Assay
Assay type: cell-based
Details: read-out: Cell prolif P493 72 h IC50; P493-6 cells, 72 h incubation
Experimental: P493-6 (myc “on”) cells were maintained in growth media (RPMI-1640, 10% FBS, 2 mM glutamine, 100 units/ml Penicillin and 100 μg/ml streptomycin) at 37° C. with 5% CO2. For compound assay, P493-6 cells were plated in 96-well V-bottom plates on the day of compound addition in 50 μl of growth media at a cell density of 200,000 cells/ml (10,000 cells/well). Compounds were serially diluted in 100% DMSO at 200-times the final concentration. Compounds were diluted 100-fold into growth media and then 50 μl of this mixture was added to cell plates making the final concentration of DMSO 0.5%. Cells were incubated with compound for 72 hrs at 37° C. with 5% CO2 and analyzed for antiproliferative effects either by Cell Titer Glo (Promega) or FACS analysis using the Viacount (Millipore) kit on the Guava instrument.

COc1ccc(OC(F)(F)F)cc1CC(=O)Nc1ccc(CCCCc2nnc(NC(=O)Cc3ccccn3)s2)nn1 [Cmpd 717]
IC50: 19 nM
